Assay results published in US11452721B2, “Formulations of pimavanserin” (ACADIA Pharmaceuticals Inc., priority 2017, dated 2022).

Columns and labels:
[1] = system: hyperactivity induced by the N-methyl-D-aspartate antagonist MK-801; settings: mice; oral doses of 3 and 10 mg/kg; cited from earlier work
[2] = system: DOI ((±)-2,5-dimethoxy-4-iodoamphetamine, a serotonin agonist) induced head twitches; settings: rat; oral doses of 3 and 10 mg/kg; cited from earlier work
[3] = FT4 Powder Rheology (FT4 Powder Rheometer, ASTM D7891-15); assay type: physicochemical; settings: FT4 measurement
From the text: In addition to the bulk density and Carr's Index obtained according to USP <616>, method 1, FT4 Powder Rheology was obtained for the API (pimavanserin tartrate) and for the compositions disclosed herein using a FT4 Powder Rheometer according to ASTM D7891-15; Standard Test Method for Shear Testing of Powders Using the Freeman Technology FT4 Powder Rheometer Shear Cell.
As discussed herein above the flowability of the composition has been improved compared to the API (pimavanserin tartrate), which for example can be supported by the Specific Energy (SE) obtained from the FT4 measurements. Specific Energy is a measure of the powder's flowability when unconfined, such as during low stress filling, or low shear blending. The average Specific Energy (SE) for the API is about 10.08+/−0.23 mJ/g.
The FT4 Powder Rheometer was also used as yet another means to compare the bulk density between the API, the granulated pimavanserin and the blended pimavanserin compositions disclosed herein and in the accompanying claims. The bulk density is a conditioned bulk density as obtained by the FT4 measurement, in accordance with ASTM D7891-15; Standard Test Method for Shear Testing of Powders Using the Freeman Technology FT4 Powder Rheometer Shear Cell.
The blended pimavanserin composition used in the herein mention FT4 Powder Rheometry measurements comprised 34 mg pimavanserin, 59 mg microcrystalline cellulose and 1 mg magnesium stearate.

[4] = Bulk density according to USP <616> method 1; assay type: physicochemical
Description: (§1) Carr's Index compares the difference between the bulk density and tapped density of a substance to determine its compressibility. The bulk density and the Carr's Index may be determined in accordance with USP<616> (method for performing Bulk and Tapped Densities, method 1) and USP<1174> (definition of powder flow) respectively.
(§2) Table 1 visualizes that filling of a capsule, in particular a capsule of size 3 or 4 (capsule volumes of 0.30 and 0.21 ml respectively, approximately 120 mg and 85 mg respectively at a bulk density of […]). As evident from Table 1, native pimavanserin (API) would be challenging for a size 3 capsule and not possible for a capsule of size 4 without improving the bulk density (as comparison 85 mg of pimavanserin granulation would require about 0.17 ml compared to 0.29 ml for the native API) and flowability (Carr index is frequently used in pharmaceutical manufacturing as an indication of the flowability of a powder, e.g. 2016 U.S. Pharmacopoeias-National Formulary [USP 35 NF 30]).
The bulk density of the blended composition is >0.4 g/ml, such as 0.4-0.6 g/ml, such as about 0.5 g/ml determined according to USP <616>, method 1. […]
The bulk density of pimavanserin granulation is >0.4 g/ml, such as 0.4-0.6 g/ml, such as about 0.5 g/ml, determined according to USP <616>, method 1. […]

[5] = Carr's Index (Carr's Compressibility Index), USP <616>/<1174>; assay type: physicochemical
Description: as §1, §2

[6] = Laser light scattering particle size distribution (Malvern Mastersizer 2000); assay type: physicochemical; settings: before vs after granulation, FIG. 4/5
From the text: The small quantity of water, its application using appropriate water atomization and/or water application rate are important reasons for the improved properties of pimavanserin. […] The actual amount of water to be sprayed at the granulation of pimavanserin may vary from batch to batch (depending on surrounding factors such as humidity, temperature, exact properties of the API batch, etc) but is still consider to be a small amount, e.g. 3-10% w/w based on the dry ingredients. The amount of water and the granulation process disclosed herein is controlled by controlling the impeller energy to achieve the targeted impeller speed. The appropriate impeller speed ensures sufficient mixing and controls the growth of granules. The specific small amount of water needed for each batch is controlled by the power consumption (amperage) of the granulator, i.e., if the amperage is […], additional amounts of water could be sprayed to the granulate in order to obtain pimavanserin having the properties desired in order to pharmaceutically manufacture capsules comprising 5-34 mg pimavanserin. […] The properties are achieved via a manufacturing process that includes granulation, using a suitable granulator, e.g. a high shear granulator, simultaneously spraying the adequate amount of water while mixing, followed by screening, and blending appropriate quantities of excipients. […]

| Molecule | attenuation of MK-801 induced hyperactivity [1] | activity in DOI induced head twitches [2] | average Flow Rate Index (FRI) [3] | average Specific Energy (SE) [3] | average conditioned bulk density (CBD) ([3]; ASTM D7891-15) | volume required by 85 mg ([4]; 85 mg of material, from bulk density) | Bulk density according to USP <616> ([4]; USP <616> method 1) | Carr's Index [5] | particle size distribution D90 [6] |
| --- | --- | --- | --- | --- | --- | --- | --- | --- | --- |
| CC(C)COc1ccc(CNC(=O)N(Cc2ccc(F)cc2)C2CCN(C)CC2)cc1 [Pimavanserin, N-(1-methylpiperidin-4-yl)-N-(4-fluorophenylmethyl)-N′-(4-(2-methylpropyloxy)phenylmethyl)carbamide] | effective | effective | – | – | – | – | – | – | – |
| pimavanserin tartrate [Native API] | – | – | 1.90±0.01 | about 10.08+/−0.23 mJ/g | 0.336 ± 0.006 g/mL | 0.29 mL | 0.294 g/mL | 36 | about 30 μm |
